The results in this text go back to ChEMBL document CHEMBL1124566, “N-(phthalimidoalkyl) derivatives of serotonergic agents: a common interaction at 5-HT1A serotonin binding sites?” (J Med Chem, 1989).

The target of one assay is T1, 5-hydroxytryptamine receptor 1A (Rattus norvegicus, UniProt P19327).
T1 sequence (P19327 whole entry): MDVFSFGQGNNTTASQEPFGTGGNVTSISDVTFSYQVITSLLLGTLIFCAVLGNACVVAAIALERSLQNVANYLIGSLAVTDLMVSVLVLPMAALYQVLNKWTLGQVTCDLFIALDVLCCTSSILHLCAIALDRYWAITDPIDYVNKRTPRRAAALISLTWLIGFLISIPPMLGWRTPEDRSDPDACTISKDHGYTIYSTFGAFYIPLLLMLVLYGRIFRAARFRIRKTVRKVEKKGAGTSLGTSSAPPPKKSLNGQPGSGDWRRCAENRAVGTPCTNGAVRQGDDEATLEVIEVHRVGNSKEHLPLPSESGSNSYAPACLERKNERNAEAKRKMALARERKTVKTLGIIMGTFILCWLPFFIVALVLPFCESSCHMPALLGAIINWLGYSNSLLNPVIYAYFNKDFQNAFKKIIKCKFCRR
Experiment: not given
It counts as cell membranes, Membrane.
In general, Ki refers to the equilibrium dissociation constant of an inhibitor or competing ligand from its target. Low readings indicate higher affinity, high ones lower affinity. In the case of `COc1ccccc1CCCN(C)C`, the affinity corresponds to a Ki of 3200 nM.
In the case of `COc1ccc2ccccc2c1N1CCNCC1`, the inhibition constant Ki amounted to 34 nM. Compared with the last compound, the Ki is about 94-fold lower.
Same read-out and setting: the value for `O=C1c2ccccc2C(=O)N1CCCCNCCCOc1cccc2ccccc12` was 25 nM; that for `COc1ccc2[nH]cc(CCN(C)C)c2c1` [MEBUFOTENIN] was 10 nM; that for `COc1ccccc1CCCN(C)CCCCN1C(=O)c2ccccc2C1=O` was 170 nM.
In the case of `COc1ccccc1CCCNCCCCN1C(=O)c2ccccc2C1=O`, the affinity, expressed as Ki, was 110 nM.
On the same count and under the same terms, under `CN(CCCCN1C(=O)c2ccccc2C1=O)CCc1ccccc1` stands 300 nM.
Still for that read-out and setting: the value for `COc1cccc2c1CC(NCCCN1C(=O)c3ccccc3C1=O)CC2` (stereo not given) was 48 nM; that for `COc1ccc2[nH]cc(CCNCCCCN3C(=O)c4ccccc4C3=O)c2c1` was 20 nM; that for `COc1cccc2c1CC(NCCN1C(=O)c3ccccc3C1=O)CC2` (stereo not given) was 250 nM.
The compound `COc1ccc2cccc(N3CCNCC3)c2c1` showed an inhibitory constant (Ki) of 3.3 nM.

For the next assay, the target named is T1, 5-hydroxytryptamine receptor 1A. Nature of the assay: Binding affinity of compound towards 5-HT 1A receptor by measuring ability to displace [3H]OH-DPAT from 5-hydroxytryptamine 1A receptor in rat hippocampal membranes.
For `O=C1c2ccccc2C(=O)N1CCCNCCCOc1cccc2ccccc12`, the Ki worked out at 45 nM. In other words, the double-digit nanomolar range.
As to `COc1ccccc1N1CCN(CCCCCN2C(=O)c3ccccc3C2=O)CC1`, the affinity, expressed as Ki, was 5 nM.
With `CN(C)CCc1ccccc1`, the inhibitory constant (Ki) was found to be 850 nM.

The target is the same in another assay. Described as above. This is another data set of the same source.
Compound `O=C1c2ccccc2C(=O)N1CCNCCCOc1cccc2ccccc12` gave an inhibitory constant (Ki) of 1330 nM.
